In test [1] the target is 5'-AMP-activated protein kinase catalytic subunit alpha-2 (Homo sapiens) (UniProt P54646).
Test [2] deals with Calcium/calmodulin-dependent protein kinase type II subunit alpha (Homo sapiens) (UniProt Q9UQM7).
The target of test [3] is Cyclin-dependent kinase 2 (Homo sapiens, UniProt P24941).
The target of test [4] is Cyclin-dependent kinase-like 1 (Homo sapiens) (UniProt Q00532).
The target of test [5] is Serine/threonine-protein kinase Chk2 (Homo sapiens, UniProt O96017).
Chain of Serine/threonine-protein kinase Chk2 (O96017 whole entry): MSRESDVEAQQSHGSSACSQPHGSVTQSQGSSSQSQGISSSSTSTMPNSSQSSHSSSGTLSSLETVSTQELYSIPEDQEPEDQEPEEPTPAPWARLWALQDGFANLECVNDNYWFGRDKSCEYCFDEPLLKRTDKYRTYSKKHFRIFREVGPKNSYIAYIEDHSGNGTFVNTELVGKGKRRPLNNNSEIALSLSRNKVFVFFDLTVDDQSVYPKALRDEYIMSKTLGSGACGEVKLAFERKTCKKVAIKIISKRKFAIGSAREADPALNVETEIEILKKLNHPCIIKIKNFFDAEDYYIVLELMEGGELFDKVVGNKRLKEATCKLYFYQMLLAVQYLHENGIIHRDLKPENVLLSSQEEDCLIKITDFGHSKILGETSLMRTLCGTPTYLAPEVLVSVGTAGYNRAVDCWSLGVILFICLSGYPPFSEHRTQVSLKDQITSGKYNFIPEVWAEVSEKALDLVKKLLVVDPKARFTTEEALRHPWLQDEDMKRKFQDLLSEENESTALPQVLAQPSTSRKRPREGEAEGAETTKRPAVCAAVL
For test [6], the target named is Dual specificity protein kinase CLK3 (Homo sapiens) (UniProt P49761).
The target in test [7] is Casein kinase I isoform gamma-2 (Homo sapiens) (UniProt P78368).
For test [8], the target named is Casein kinase I isoform gamma-3 (Homo sapiens) (UniProt Q9Y6M4).
The target of test [9] is Tyrosine-protein kinase JAK1 (Homo sapiens) (UniProt P23458).
Chain of Tyrosine-protein kinase JAK1 (Homo sapiens) (P23458 whole entry): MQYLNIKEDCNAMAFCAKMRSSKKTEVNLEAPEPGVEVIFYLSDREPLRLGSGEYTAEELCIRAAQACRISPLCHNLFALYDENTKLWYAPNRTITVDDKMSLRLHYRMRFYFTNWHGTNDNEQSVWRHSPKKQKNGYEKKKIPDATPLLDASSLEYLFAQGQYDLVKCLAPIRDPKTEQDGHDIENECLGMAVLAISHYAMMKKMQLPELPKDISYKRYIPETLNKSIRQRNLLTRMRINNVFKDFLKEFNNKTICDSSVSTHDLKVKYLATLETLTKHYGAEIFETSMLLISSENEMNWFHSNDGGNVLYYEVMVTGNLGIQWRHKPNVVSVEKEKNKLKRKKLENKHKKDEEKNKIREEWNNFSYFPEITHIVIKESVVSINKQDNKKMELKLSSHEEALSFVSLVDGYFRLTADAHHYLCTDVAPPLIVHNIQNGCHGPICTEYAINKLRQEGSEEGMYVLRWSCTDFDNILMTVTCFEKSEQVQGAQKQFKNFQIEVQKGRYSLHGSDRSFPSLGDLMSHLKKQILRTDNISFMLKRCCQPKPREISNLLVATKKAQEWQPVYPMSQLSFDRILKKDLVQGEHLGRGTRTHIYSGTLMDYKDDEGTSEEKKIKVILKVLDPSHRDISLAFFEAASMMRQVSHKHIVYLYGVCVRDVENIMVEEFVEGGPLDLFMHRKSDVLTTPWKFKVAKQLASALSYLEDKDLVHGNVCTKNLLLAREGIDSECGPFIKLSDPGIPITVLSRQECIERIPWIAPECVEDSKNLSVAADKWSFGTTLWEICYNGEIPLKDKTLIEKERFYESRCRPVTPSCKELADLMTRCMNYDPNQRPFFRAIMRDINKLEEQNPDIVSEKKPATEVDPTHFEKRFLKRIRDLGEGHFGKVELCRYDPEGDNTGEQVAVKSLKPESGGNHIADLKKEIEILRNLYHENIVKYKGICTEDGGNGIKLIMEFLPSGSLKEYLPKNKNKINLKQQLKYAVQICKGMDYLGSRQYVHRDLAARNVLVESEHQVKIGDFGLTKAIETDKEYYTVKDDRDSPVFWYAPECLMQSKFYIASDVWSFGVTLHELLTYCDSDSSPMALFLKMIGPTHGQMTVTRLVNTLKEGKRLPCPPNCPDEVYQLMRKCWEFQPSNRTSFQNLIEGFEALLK
Test [10] deals with Mitogen-activated protein kinase 6 (Homo sapiens) (UniProt Q16659).
Chain of Mitogen-activated protein kinase 6 (Homo sapiens) (Q16659 whole entry): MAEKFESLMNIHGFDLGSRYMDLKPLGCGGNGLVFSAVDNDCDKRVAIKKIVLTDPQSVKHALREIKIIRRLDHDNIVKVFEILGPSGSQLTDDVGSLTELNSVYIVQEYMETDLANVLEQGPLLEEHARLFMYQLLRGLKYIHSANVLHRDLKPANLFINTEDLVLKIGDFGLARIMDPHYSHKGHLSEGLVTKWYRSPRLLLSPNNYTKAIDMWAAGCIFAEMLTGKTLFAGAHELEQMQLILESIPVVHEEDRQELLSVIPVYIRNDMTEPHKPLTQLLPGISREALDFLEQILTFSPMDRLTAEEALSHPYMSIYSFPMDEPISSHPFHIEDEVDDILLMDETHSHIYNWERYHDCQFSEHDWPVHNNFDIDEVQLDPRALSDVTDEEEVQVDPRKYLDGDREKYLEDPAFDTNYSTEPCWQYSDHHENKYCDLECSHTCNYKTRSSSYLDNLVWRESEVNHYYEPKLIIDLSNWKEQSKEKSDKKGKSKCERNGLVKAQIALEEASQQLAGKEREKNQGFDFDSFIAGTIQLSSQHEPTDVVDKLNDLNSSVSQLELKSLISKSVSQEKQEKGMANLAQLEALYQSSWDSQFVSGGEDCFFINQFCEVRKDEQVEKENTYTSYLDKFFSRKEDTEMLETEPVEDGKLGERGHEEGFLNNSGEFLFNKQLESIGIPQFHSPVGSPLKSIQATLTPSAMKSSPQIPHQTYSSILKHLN
Test [11] deals with Serine/threonine-protein kinase PAK 5 (Homo sapiens) (UniProt Q9P286).
Chain of Serine/threonine-protein kinase PAK 5 (Homo sapiens) (Q9P286 whole entry, looked up): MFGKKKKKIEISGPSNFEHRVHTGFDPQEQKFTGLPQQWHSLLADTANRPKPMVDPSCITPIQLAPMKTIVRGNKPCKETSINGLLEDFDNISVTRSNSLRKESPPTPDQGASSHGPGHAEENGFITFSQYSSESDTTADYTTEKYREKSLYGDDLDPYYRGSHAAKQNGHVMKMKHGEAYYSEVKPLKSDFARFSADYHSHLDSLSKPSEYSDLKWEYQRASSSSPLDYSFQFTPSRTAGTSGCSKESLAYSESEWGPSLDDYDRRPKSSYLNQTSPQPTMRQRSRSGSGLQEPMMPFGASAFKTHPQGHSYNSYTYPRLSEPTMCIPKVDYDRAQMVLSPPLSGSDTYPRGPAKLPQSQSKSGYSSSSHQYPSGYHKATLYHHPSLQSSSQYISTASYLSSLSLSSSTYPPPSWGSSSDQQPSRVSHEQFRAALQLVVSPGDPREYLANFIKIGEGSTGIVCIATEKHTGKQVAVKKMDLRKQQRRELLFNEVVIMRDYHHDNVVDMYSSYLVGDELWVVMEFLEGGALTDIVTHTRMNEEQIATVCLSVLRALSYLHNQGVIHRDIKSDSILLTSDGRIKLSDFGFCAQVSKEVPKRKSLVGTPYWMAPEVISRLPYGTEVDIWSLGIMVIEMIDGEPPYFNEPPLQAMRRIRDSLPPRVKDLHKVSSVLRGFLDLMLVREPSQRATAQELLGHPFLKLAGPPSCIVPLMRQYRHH
For test [12], the target named is Serine/threonine-protein kinase PAK 6 (Homo sapiens) (UniProt Q9NQU5).
The target in test [13] is Serine/threonine-protein kinase pim-1 (Homo sapiens) (UniProt P11309).
Chain of Serine/threonine-protein kinase pim-1 (Homo sapiens) (P11309 whole entry, looked up): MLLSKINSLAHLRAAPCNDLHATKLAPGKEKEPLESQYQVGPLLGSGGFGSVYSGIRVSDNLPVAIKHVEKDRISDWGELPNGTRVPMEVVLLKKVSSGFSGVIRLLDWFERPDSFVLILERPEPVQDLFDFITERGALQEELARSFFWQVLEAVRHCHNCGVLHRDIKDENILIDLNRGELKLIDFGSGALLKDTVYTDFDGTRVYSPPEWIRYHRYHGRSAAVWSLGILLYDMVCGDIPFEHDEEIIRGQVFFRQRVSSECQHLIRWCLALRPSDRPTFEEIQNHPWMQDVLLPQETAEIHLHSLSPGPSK
The target of test [14] is Serine/threonine-protein kinase pim-2 (Homo sapiens, UniProt Q9P1W9).
Test [15] has as its target Serine/threonine-protein kinase PLK1 (Homo sapiens) (UniProt P53350).
The target in test [16] is T1, Serine/threonine-protein kinase PLK4 (Homo sapiens) (UniProt O00444).
T1 sequence (whole entry): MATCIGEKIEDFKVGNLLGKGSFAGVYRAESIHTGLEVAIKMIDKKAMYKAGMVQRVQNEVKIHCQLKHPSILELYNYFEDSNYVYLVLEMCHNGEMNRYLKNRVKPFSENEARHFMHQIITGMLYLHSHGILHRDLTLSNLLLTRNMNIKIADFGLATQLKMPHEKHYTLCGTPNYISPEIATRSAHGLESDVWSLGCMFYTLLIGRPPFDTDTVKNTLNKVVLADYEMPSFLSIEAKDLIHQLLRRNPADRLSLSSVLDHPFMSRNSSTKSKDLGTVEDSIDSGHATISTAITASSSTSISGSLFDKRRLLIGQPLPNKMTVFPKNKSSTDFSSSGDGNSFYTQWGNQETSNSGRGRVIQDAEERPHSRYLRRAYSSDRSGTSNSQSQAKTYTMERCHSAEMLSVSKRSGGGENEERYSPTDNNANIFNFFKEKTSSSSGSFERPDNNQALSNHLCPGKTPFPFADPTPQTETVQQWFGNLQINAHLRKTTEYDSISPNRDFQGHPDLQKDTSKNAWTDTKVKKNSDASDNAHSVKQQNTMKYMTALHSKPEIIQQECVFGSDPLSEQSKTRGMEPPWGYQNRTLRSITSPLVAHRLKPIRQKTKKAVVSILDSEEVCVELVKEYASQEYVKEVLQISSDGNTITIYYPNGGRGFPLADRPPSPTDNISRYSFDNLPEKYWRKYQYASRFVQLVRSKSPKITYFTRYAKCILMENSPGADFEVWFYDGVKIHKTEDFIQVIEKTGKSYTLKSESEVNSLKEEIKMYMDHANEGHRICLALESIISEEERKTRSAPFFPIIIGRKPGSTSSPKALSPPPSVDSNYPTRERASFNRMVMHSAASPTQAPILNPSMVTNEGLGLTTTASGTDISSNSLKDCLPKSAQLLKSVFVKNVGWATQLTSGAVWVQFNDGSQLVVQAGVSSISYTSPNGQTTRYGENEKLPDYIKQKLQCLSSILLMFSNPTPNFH

Test [17] deals with Serine/threonine-protein kinase 10 (Homo sapiens) (UniProt O94804).
In test [18] the target is T2, Serine/threonine-protein kinase 17A (Homo sapiens) (UniProt Q9UEE5).
T2 sequence (whole entry): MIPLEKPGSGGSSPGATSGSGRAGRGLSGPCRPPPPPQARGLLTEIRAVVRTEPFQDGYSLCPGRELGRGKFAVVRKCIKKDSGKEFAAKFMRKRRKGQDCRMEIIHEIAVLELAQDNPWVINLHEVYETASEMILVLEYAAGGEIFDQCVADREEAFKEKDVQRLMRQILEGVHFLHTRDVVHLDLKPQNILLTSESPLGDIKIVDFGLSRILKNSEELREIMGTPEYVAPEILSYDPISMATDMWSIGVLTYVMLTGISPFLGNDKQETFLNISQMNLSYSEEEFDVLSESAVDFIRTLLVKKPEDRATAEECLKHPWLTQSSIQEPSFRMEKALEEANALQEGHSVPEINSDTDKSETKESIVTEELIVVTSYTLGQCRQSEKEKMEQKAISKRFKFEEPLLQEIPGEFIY

The target in test [19] is Serine/threonine-protein kinase 26 (Homo sapiens) (UniProt Q9P289).
For test [20], the target named is T3, Serine/threonine-protein kinase VRK3 (Homo sapiens) (UniProt Q8IV63).
T3 sequence (whole entry): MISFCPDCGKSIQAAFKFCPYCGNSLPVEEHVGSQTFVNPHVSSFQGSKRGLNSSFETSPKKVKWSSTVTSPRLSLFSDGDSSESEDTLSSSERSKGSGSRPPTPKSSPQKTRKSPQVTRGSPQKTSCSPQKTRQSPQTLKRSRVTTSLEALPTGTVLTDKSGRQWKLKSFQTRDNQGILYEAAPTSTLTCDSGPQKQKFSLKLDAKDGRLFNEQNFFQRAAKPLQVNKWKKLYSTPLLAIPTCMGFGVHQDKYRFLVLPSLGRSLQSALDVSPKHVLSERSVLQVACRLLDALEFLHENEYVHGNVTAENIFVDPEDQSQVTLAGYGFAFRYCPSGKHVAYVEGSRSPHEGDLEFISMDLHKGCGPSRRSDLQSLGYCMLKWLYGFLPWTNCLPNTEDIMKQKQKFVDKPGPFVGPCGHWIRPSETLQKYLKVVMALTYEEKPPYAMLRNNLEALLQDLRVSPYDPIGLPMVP

Chain of Cyclin-dependent kinase-like 1 (Homo sapiens) (Q00532 whole entry): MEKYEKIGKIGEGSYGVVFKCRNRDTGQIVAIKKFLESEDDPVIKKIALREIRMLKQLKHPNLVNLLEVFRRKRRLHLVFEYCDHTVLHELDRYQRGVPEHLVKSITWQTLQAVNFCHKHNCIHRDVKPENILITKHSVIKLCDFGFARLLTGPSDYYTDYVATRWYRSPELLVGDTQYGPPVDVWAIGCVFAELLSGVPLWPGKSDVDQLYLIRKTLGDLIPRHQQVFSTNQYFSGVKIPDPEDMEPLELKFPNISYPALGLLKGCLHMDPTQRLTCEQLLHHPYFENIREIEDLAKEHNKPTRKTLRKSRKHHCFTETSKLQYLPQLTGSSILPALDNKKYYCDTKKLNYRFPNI
Chain of 5'-AMP-activated protein kinase catalytic subunit alpha-2 (Homo sapiens) (P54646 whole entry, looked up): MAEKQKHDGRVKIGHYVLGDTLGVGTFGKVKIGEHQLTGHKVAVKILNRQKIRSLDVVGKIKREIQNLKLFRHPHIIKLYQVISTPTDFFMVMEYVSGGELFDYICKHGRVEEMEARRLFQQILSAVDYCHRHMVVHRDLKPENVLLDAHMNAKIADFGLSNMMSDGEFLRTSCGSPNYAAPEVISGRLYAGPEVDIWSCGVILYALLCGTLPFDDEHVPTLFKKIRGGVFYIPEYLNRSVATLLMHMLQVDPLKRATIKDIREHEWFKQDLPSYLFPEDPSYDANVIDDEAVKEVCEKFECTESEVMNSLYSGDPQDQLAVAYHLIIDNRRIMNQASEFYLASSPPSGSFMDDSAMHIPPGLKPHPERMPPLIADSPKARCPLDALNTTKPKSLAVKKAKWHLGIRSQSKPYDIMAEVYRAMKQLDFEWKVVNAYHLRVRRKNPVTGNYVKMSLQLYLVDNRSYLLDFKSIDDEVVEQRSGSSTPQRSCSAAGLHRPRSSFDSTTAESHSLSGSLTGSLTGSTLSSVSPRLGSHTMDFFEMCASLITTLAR
Chain of Calcium/calmodulin-dependent protein kinase type II subunit alpha (Homo sapiens) (Q9UQM7 whole entry): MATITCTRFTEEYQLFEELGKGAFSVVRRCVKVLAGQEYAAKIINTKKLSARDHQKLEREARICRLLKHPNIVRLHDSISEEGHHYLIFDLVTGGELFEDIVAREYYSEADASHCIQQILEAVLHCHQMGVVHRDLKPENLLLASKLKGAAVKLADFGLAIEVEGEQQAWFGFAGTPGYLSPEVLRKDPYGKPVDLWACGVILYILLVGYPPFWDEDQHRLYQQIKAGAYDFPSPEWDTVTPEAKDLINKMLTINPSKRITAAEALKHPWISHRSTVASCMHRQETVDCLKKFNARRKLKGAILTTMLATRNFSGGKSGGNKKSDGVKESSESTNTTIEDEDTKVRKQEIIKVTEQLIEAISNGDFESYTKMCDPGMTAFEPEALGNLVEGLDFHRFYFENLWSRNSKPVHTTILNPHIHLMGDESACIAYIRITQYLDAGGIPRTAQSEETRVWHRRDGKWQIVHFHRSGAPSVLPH

The term ΔTm denotes the change in melting temperature against a reference sample. Regarding `COc1ccc(CNc2nc(N(CCO)CCO)nc3c2ncn3C(C)C)cc1`, the ΔTm in test [1] stood at 0.6 °C; in test [2], 0 °C; in test [3], 1.6 °C; in [4] it was 0.3 °C; in test [5], 0.9 °C; in test [6], 0.6 °C. Besides, the ΔTm was 1.6 °C in test [7]; 1.7 °C in test [8]; 0.2 °C in test [9]; -0.4 °C in [10]; 1.1 °C in test [11]; 1.2 °C in test [12]. Also, the ΔTm was -1 °C in test [13]; 0.3 °C in test [14]; 0.9 °C in test [15]; 0.5 °C in test [16]; 0.7 °C in test [17]; -0.2 °C in test [18]. The values for the shift in melting temperature (ΔTm) in test [19] and in test [20] were 1 °C and 0.4 °C, respectively.
For the compound `CC(C)n1cnc2/c(=N/c3cccc(Cl)c3)nc(NCCO)[nH]c21`, the thermal shift (ΔTm) in [1] is 0.3 °C; in [2], 0.7 °C; in test [3], 1.6 °C; in [4], -0.1 °C; in test [5], 1.7 °C; in test [6], 4 °C. Further, the ΔTm in test [7] is 4.5 °C; in test [8], 7 °C; in test [9], 3.7 °C; in test [10], 0.2 °C; in test [11], 1.6 °C; in [12], 3.8 °C. The ΔTm in test [13] was -0.3 °C; in test [14], 0.6 °C; in test [15], 7.5 °C; in test [16], 1.3 °C; in test [17], 2 °C; in test [18], 1.4 °C. The results for the ΔTm in test [19] and in test [20] were 0.9 °C and 0.4 °C, respectively.
In the case of `O=S(=O)(c1cccc2c(Cl)cccc12)N1CCCNCC1`, the ΔTm is -0.4 °C in test [1]; 0.5 °C in [2]; 0.8 °C in test [3]; 0.3 °C in test [4]; -0.1 °C in test [5]; -0.2 °C in [6]. Also, the ΔTm in test [7] was 0.3 °C; in [8], 0.1 °C; in test [9] it was 0 °C; in test [10], 0 °C; in [11] it was 0.1 °C; in test [12], -0.1 °C. Further, the ΔTm in test [13] was found to be 2.7 °C; in test [14] it was 1.7 °C; in test [15] it was 0 °C; in test [16] it was 0.4 °C; in test [17], 0.4 °C; in test [18], 0.7 °C. Also, the values for the ΔTm in test [19] and in [20] were -0.1 °C and 0.1 °C, respectively.
As for `Nc1n[nH]c2nc3ccccc3nc12` [QUINOXALINE1], the thermal shift (ΔTm) in [1] was -0.1 °C; in test [2] it was 0.7 °C; in test [3] it was 1.3 °C; in [4], 0.2 °C; in test [5], 0.5 °C; in test [6] it was 0.5 °C. Also, the ΔTm in test [7] is 0.4 °C; in test [8], 0.4 °C; in test [9], 2.2 °C; in [10], 0.4 °C; in [11], 0.2 °C; in [12], 0.6 °C. The ΔTm was -0.8 °C in [13]; 1.3 °C in [14]; 0.3 °C in [15]; 1.5 °C in [16]; 1.6 °C in test [17]; 3.5 °C in test [18]. In addition, the thermal shift (ΔTm) in [19] was 0.7 °C; in test [20] it was 0.4 °C.
Turning to `O=c1c2ccccc2[nH]c(=S)n1CCN1CCC(=C(c2ccc(F)cc2)c2ccc(F)cc2)CC1` [DIACYLGLYCEROL KINASE INHIBITOR II], the ΔTm in [1] is -3.3 °C; in test [2], -0.6 °C; in test [3] it was 0.9 °C; in [4], -0.5 °C; in [5], 1.6 °C; in test [6], 0.2 °C. Besides, the shift in melting temperature (ΔTm) in [7] is 0.5 °C; in test [8], -1.3 °C; in test [9] it was 0.6 °C; in test [10], -0.1 °C; in [11] it was -0.2 °C; in [12], -0.1 °C. Besides, the ΔTm in [13] worked out at 0 °C; in test [14] it was 1.4 °C; in test [15] it was 0.6 °C; in test [16], 0.8 °C; in [17], 3.6 °C; in test [18] it was 0.5 °C. For the same compound, the results for the ΔTm in test [19] and in test [20] were 2.1 °C and -0.6 °C, respectively.
As for `NC(=O)c1ccc2[nH]c(-c3ccc(Oc4ccc(Cl)cc4)cc3)nc2c1`, the ΔTm is -0.9 °C in test [1]; 0.1 °C in test [2]; -0.7 °C in test [3]; 0.1 °C in test [4]; 0.5 °C in test [6]; 1.6 °C in test [7]. The ΔTm in test [8] was 1.3 °C; in test [9] it was 1.7 °C; in test [10], 0.5 °C; in test [11], -0.2 °C; in test [12] it was -0.8 °C; in test [13], 0.4 °C. Also, the ΔTm came out at 1 °C in test [14]; 4.4 °C in test [15]; 1.4 °C in [16]; 0.3 °C in test [17]; 0.7 °C in test [18]; 1.3 °C in test [19]. The thermal shift (ΔTm) in test [20] amounted to 1.2 °C.
Regarding `CN(C)C[C@@H]1CCn2cc(c3ccccc32)C2=C(C(=O)NC2=O)c2cn(c3ccccc23)CCO1` [RUBOXISTAURIN], the ΔTm in test [1] was 1.3 °C; in test [2] it was 3.1 °C; in test [3] it was 0.9 °C; in test [4], 0.3 °C; in test [5] it was 3.5 °C; in [6], 0.3 °C. The ΔTm in test [7] was 0.9 °C; in [8], 0.5 °C; in test [9], -0.5 °C; in [10], 0.1 °C; in [11] it was 0.9 °C; in test [12], 0.8 °C. In addition, the ΔTm in test [14] was 2.1 °C; in [15] it was -0.9 °C; in test [16], 1.5 °C; in test [17] it was 7.2 °C; in test [18], -0.2 °C; in [19] it was 4.1 °C. Moreover, the thermal shift (ΔTm) in test [20] was -0.3 °C.

Source of the values: ChEMBL document CHEMBL1145498, “A systematic interaction map of validated kinase inhibitors with Ser/Thr kinases” (Proc Natl Acad Sci U S A, 2007).
